Measurements taken from patent US11352350B2, “IRAK degraders and uses thereof” (Kymera Therapeutics, Inc., priority 2018, dated 2022).
Read-outs that look alike come from different tables or passages of the source.

Legend:
OCI-LY10 = experiment: CTG Cell Viability Assay - OCI-LY10; assay type: cell-based, human; settings: Homo sapiens, OCI-LY10, 4 days, read-out: CTG Cell Viability Assay - OCI-LY10: Average external-IC50
In short: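 Viability read by CellTiter-Glo luminescence after 4 days at 37° C under 5% CO2 with compound (top 10 μM final, 1:3 steps, 9 doses, DMSO 0.2%). Three-parameter logistic fit gave IC50.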

IRAK4 = IRAK4 (Homo sapiens (Human), UniProt Q9NWZ3); experiment: IRAK4 MSD degradation in OCI-LY10; assay type: cell-based
IRAK4, sequence (Q9NWZ3 whole entry): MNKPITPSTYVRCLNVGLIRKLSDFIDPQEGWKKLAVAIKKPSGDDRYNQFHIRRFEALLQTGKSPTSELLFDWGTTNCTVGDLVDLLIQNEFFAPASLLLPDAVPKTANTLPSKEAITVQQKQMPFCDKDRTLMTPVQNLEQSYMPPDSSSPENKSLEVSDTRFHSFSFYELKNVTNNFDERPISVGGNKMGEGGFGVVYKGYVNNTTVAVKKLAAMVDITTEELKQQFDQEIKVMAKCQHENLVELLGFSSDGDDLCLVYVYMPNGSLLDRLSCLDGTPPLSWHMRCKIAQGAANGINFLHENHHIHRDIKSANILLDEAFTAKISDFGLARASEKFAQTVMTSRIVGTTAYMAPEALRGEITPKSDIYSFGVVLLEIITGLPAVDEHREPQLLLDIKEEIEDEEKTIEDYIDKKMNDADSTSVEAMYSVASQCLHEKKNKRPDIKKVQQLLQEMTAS
In short: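 Remaining IRAK4 quantified by electrochemiluminescent MSD sandwich assay with two anti-IRAK4 antibodies. Compounds were dosed as 8 concentrations in 1:3 steps from a 1 to 10 μM final top on OCI-LY10 cells, incubated 4 to 24 h at 37° C. under 5% CO2. DC50 fitted with a three-parameter logistic curve.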

[1] = OCI-LY10, 4 hrs, MSD, read-out: IRAK4 MSD degradation in OCI-LY10 at 4 hrs: Average external-Abs DC50
[2] = OCI-LY10, 24 hrs, MSD, read-out: IRAK4 MSD degradation in OCI-LY10 at 24 hrs: Average external-Abs DC50
[3] = OCI-LY10, 4 hrs, read-out: IRAK4 MSD degradation in OCI-LY10 at 4 hrs: DC50
[4] = OCI-LY10, 24 hrs, read-out: IRAK4 MSD degradation in OCI-LY10 at 24 hrs: DC50

| SMILES | IC50 (OCI-LY10; OCI-Ly10, 96 h) | DC50 (IRAK4; [1]) | DC50 (IRAK4; [2]) | DC50 (IRAK4; [3]) | DC50 (IRAK4; [4]) | IC50 (OCI-LY10; 96 h) |
| --- | --- | --- | --- | --- | --- | --- |
| O=C1CCC(N2C(=O)c3ccnc(NCCCOC4CCN(Cc5ccc(-n6cc(NC(=O)c7cnn8ccc(N9CCOCC9)nc78)c(C(F)F)n6)cc5)CC4)c3C2=O)C(=O)N1 (stereo not drawn) [I-441] | > 1000 nM | 10 to 100 nM | 10 to 100 nM |  |  |  |
| CN(C[C@H]1CC[C@H](n2cc(NC(=O)c3cnn4ccc(NCCC(C)(C)O)nc34)c(C(F)F)n2)CC1)[C@H]1CC[C@H](Nc2cccc3c2C(=O)N(C2CCC(=O)NC2=O)C3=O)CC1 (stereo partly drawn) [I-502] | < 50 nM |  |  | < 10 nM | < 10 nM |  |
| CN(CCCOCCCc1cccc2c1n(C)c(=O)n2C1CCC(=O)NC1=O)C[C@H]1CC[C@H](n2cc(NC(=O)c3cnn4ccc(N5CCOCC5)nc34)c(C(F)F)n2)CC1 (stereo partly drawn) [I-259] | > 1000 nM | < 10 nM | < 10 nM |  |  |  |
| O=C1CCC(N2C(=O)c3cccc(NCCCOC4CCN(C[C@H]5CC[C@H](n6ncc(NC(=O)c7cnn8ccc(N9C[C@H]%10CC9CO%10)nc78)c6C(=O)O)CC5)CC4)c3C2=O)C(=O)N1 (stereo partly drawn) [I-348] | > 1000 nM | > 1000 nM | > 1000 nM |  |  |  |
| CC[C@@H]1[C@H](F)C(=O)N[C@@H]1COc1ncc(C#C[C@H]2CC[C@H](CN)CC2)c2cc(C(N)=O)c(OC)cc12 [I-314, 4-[2-[4-(Aminomethyl)cyclohexyl]ethynyl]-1-[[(2S,3S,4S)-3-ethyl-4-fluoro-5-oxo-pyrrolidin-2-yl]methoxy]-7-methoxy-isoquinoline-6-carboxamide] | > 1000 nM | > 1000 nM | > 1000 nM |  |  |  |
| O=C1CCC(N2Cc3c(NCCCOC4CCN(C[C@H]5CC[C@H](n6cc(NC(=O)c7cnn8ccc(N9CCOCC9)nc78)c(C(F)F)n6)CC5)CC4)cccc3C2=O)C(=O)N1 (stereo partly drawn) [I-330] | > 1000 nM |  | < 10 nM |  |  |  |
| O=C1CCC(N2C(=O)c3cccc(NC4CC5(CCN(C[C@H]6CC[C@H](n7cc(NC(=O)c8cnn9ccc(N%10C[C@H]%11C[C@@H]%10CO%11)nc89)c(C(F)F)n7)CC6)CC5)C4)c3C2=O)C(=O)N1 (stereo partly drawn) [I-381] | 50 to 100 nM | 10 to 100 nM | < 10 nM |  |  |  |
| O=C1CCC(N2C(=O)c3cccc(NCCCOC[C@H]4CN(C[C@H]5CC[C@H](n6cc(NC(=O)c7cnn8ccc(N9CCOCC9)nc78)c(C(F)F)n6)CC5)CCO4)c3C2=O)C(=O)N1 (stereo partly drawn) [I-332] | 100 to 500 nM | 100 to 1000 nM | 10 to 100 nM |  |  |  |
| Cn1c(=O)n(C2CCC(=O)NC2=O)c2ccc(CCCOCC3CCN(C[C@H]4CC[C@H](n5cc(NC(=O)c6cnn7ccc(N8CCNCC8)nc67)c(C(F)F)n5)CC4)CC3)cc21 (stereo partly drawn) [I-163] | > 1000 nM | < 10 nM |  |  |  |  |
| CN(CCCOCCCNc1cccc2c1C(=O)N(C1CCC(=O)NC1=O)C2=O)Cc1ccc(-n2cc(NC(=O)c3coc(-c4ccnc(NCC5CC5)c4)n3)c(C(F)F)n2)cc1 (stereo not drawn) [I-392] | 100 to 500 nM | 100 to 1000 nM | 10 to 100 nM |  |  |  |
| O=C1CCC(N2C(=O)c3cccc(NCCCOCCCS(=O)(=O)NC(=O)[C@H]4CC[C@H](n5cc(NC(=O)c6cnn7ccc(N8C[C@H]9CC8CO9)nc67)c(C(F)F)n5)CC4)c3C2=O)C(=O)N1 (stereo partly drawn) [I-440] | > 1000 nM | 100 to 1000 nM | > 1000 nM |  |  |  |
| CN(CC1CCC(n2cc(NC(=O)c3cnn4ccc(N5C[C@H]6C[C@@H]5CO6)nc34)c(C(F)F)n2)CC1)[C@H]1C[C@H](Nc2cccc3c2C(=O)N(C2CCC(=O)NC2=O)C3=O)C1 (stereo partly drawn) [I-457] | > 1000 nM |  |  | 100 to 1000 nM | > 1000 nM |  |
| CC[C@H]1C(COc2ncc(C#CC3CCC(CN(C)CCCOCCCc4cccc5c4n(C)c(=O)n5C4CCC(=O)NC4=O)CC3)c3cc(C(N)=O)c(OC)cc23)NC(=O)[C@H]1F (stereo partly drawn) [I-184] | > 1000 nM | 10 to 100 nM | 10 to 100 nM |  |  |  |
| O=C1CCC(N2C(=O)c3cccc(NCCCOC[C@@H]4CN(Cc5ccc(-n6cc(NC(=O)c7coc(-c8ccnc(NCC9CC9)c8)n7)c(C(F)F)n6)cc5)CCO4)c3C2=O)C(=O)N1 (stereo partly drawn) [I-393] | 50 to 100 nM | 100 to 1000 nM | 10 to 100 nM |  |  |  |
| CN(C[C@H]1CC[C@H](C2N=C(NC(=O)c3cnn4ccc(N5CCOCC5)nc34)C(C(F)F)=N2)CC1)C1CCC(CNc2cccc3c2C(=O)N(C2CCC(=O)NC2=O)C3=O)CC1 (stereo partly drawn) [I-459] | < 50 nM |  |  | 100 to 1000 nM | 10 to 100 nM |  |
| CC[C@@H]1[C@H](F)C(=O)N[C@@H]1COc1ncc(C#CC2CCN(CCOCCNc3cccc4c3C(=O)N(C3CCC(=O)NC3=O)C4=O)CC2)c2cc(C(N)=O)c(OC)cc12 (stereo partly drawn) [I-357, 4-[2-[1-[2-[2-[[2-(2,6-dioxo-3-piperidyl)-1,3-dioxo-isoindolin-4-yl]amino]ethoxy]ethyl]-4-piperidyl]ethynyl]-1-[[(2S,3S,4S)-3-ethyl-4-fluoro-5-oxo-pyrrolidin-2-yl]methoxy]-7-methoxy-isoquinoline-6-carboxamide] | > 1000 nM | > 1000 nM |  |  |  |  |
| CC[C@@H]1[C@H](F)C(=O)N[C@@H]1COc1ccc(C#C[C@H]2CC[C@H](CN3CCC4(CC3)CC(CNc3cccc5c3C(=O)N(C3CCC(=O)NC3=O)C5=O)C4)CC2)c2cc(C(N)=O)c(OC)cc12 (stereo partly drawn) [I-372] | < 50 nM | > 1000 nM |  |  |  |  |
| CC[C@@H]1[C@H](F)C(=O)N[C@@H]1COc1ncc(C#CC2CCN(CCCC3CCN(c4cccc5c4C(=O)N(C4CCC(=O)NC4=O)C5=O)CC3)CC2)c2cc(C(N)=O)c(OC)cc12 (stereo partly drawn) [I-234] | > 1000 nM | 100 to 1000 nM | 10 to 100 nM |  |  |  |
| O=C1CCC(N2C(=O)c3cccc(NCCCOC[C@@H]4CN(C[C@H]5CC[C@H](n6cc(NC(=O)c7coc(-c8ccnc(NCC9CC9)c8)n7)c(C(F)F)n6)CC5)CCO4)c3C2=O)C(=O)N1 (stereo partly drawn) [I-353] | 100 to 500 nM | 10 to 100 nM | 10 to 100 nM |  |  |  |
| Cn1c(=O)n(C2CCC(=O)NC2=O)c2ccc(CCCOC3CCN(C[C@H]4CC[C@H](n5cc(NC(=O)c6cnn7ccc(N8CCNCC8)nc67)c(C(F)F)n5)CC4)CC3)cc21 (stereo partly drawn) [I-162] | > 1000 nM | < 10 nM |  |  |  |  |
| Cn1c(=O)n(C2CCC(=O)NC2=O)c2cccc(CCCO[C@H]3CC[C@H](CN4CCC(n5cc(NC(=O)c6cnn7ccc(N8CCOCC8)nc67)c(C(F)F)n5)CC4)CC3)c21 (stereo partly drawn) [I-200] | 50 to 100 nM | < 10 nM |  |  |  |  |
| CN(C[C@H]1CC[C@H](n2cc(NC(=O)c3cnn4ccc(N5C[C@H]6C[C@@H]5CO6)nc34)c(C(F)F)n2)CC1)C1CCN(CCNc2cccc3c2C(=O)N(C2CCC(=O)NC2=O)C3=O)CC1 (stereo partly drawn) [I-367] | 100 to 500 nM | 10 to 100 nM |  |  |  |  |
| CC[C@@H]1[C@H](F)C(=O)N[C@@H]1COc1ncc(C#C[C@H]2CC[C@H](CN(C)CCCOCCCN)CC2)c2cc(C(N)=O)c(OC)cc12 [I-316, 4-[2-[4-[[3-(3-Aminopropoxy)propyl-methyl-amino]methyl]cyclohexyl]ethynyl]-1-[[(2S, 3S, 4S)-3-ethyl-4-fluoro-5-oxo-pyrrolidin-2-yl]methoxy]-7-methoxy-isoquinoline-6-carboxamide] |  | > 1000 nM | > 1000 nM |  |  | > 1000 nM |
| CN(CCCOCCCNc1cccc2c1C(=O)N(C1CCC(=O)NC1=O)C2=O)C[C@H]1CC[C@H](n2cc(N(C)C(=O)c3coc(-c4ccnc(NCC5CC5)c4)n3)c(C(F)F)n2)CC1 (stereo partly drawn) [I-401] | 500 to 1000 nM | 100 to 1000 nM | > 1000 nM |  |  |  |
| CN(C[C@H]1CC[C@H](n2cc(NC(=O)c3cnn4ccc(N5CCOCC5)nc34)c(C(F)F)n2)CC1)C1CCN(CCc2cccc3c2n(C)c(=O)n3C2CCC(=O)NC2=O)CC1 (stereo partly drawn) [I-404] | < 50 nM | < 10 nM |  |  |  |  |
| CN(CCCOCCCN(C)C(=O)c1ccc(CNCc2ccc(-c3ccc4c(cnn4CC4CC4)c3)cc2)cc1)C[C@H]1CC[C@H](n2cc(NC(=O)c3coc(-c4ccnc(NCC5CC5)c4)n3)c(C(F)F)n2)CC1 [I-133] | > 1000 nM | > 1000 nM | > 1000 nM |  |  |  |
| NCCCOCCCNC[C@H]1CC[C@H](n2cc(NC(=O)c3coc(-c4ccnc(NCC5CC5)c4)n3)c(C(F)F)n2)CC1 [I-235] | > 1000 nM | > 1000 nM | > 1000 nM |  |  |  |
| Cn1c(=O)n(C2CCC(=O)NC2=O)c2cccc(CCCOC3CCN(C[C@H]4CC[C@H](n5cc(NC(=O)c6cnn7ccc(N8C[C@H](N)CC(F)(F)C8)nc67)c(C(F)F)n5)CC4)CC3)c21 (stereo partly drawn) [I-303, 5-[(5R)-5-amino-3,3-difluoro-1-piperidyl]-N-[3-(difluoromethyl)-1-[4-[[4-[3-[1-(2,6-dioxo-3-piperidyl)-3-methyl-2-oxo-benzimidazol-4-yl]propoxy]-1-piperidyl]methyl]cyclohexyl]pyrazol-4-yl] pyrazolo [1,5-a] pyrimidine-3-carboxamide] | > 1000 nM | 10 to 100 nM |  |  |  |  |
